# Data taken from PubChem BioAssay (NCI).
#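 Protocol summary: plate cells (96-well), add compound at 5 concentrations, incubate 48 h, interpolate endpoints linearly. The concentration for 50% growth inhibition is given as GI50. At the TGI there is no net growth.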
# What was measured:
# Test in all cases: DTP human tumour cell line panel, 48 h
# UO-31 renal = tested on: UO-31 renal
# NCI-H522 lung = tested on: NCI-H522 lung
# HT29 colon = tested on: HT29 colon
# HL-60(TB) leukemia = tested on: HL-60(TB) leukemia
# SNB-19 CNS = tested on: SNB-19 CNS
# DU-145 prostate = tested on: DU-145 prostate
# CAKI-1 renal = tested on: CAKI-1 renal
# PC-3 prostate = tested on: PC-3 prostate
# EKVX NSCLC = tested on: EKVX NSCLC
# OVCAR-8 ovarian = tested on: OVCAR-8 ovarian
# HS 578T breast = tested on: HS 578T breast
# OVCAR-5 ovarian = tested on: OVCAR-5 ovarian
# SK-MEL-2 melanoma = tested on: SK-MEL-2 melanoma
# SK-MEL-28 melanoma = tested on: SK-MEL-28 melanoma
# MDA-MB-231 breast = tested on: MDA-MB-231 breast
# ACHN renal = tested on: ACHN renal
# SK-OV-3 ovarian = tested on: SK-OV-3 ovarian
# SK-MEL-5 melanoma = tested on: SK-MEL-5 melanoma
# SF-539 CNS = tested on: SF-539 CNS
# SF-295 CNS = tested on: SF-295 CNS
# UACC-257 melanoma = tested on: UACC-257 melanoma
# SR leukemia = tested on: SR leukemia
# HCC-2998 colon = tested on: HCC-2998 colon
# TK-10 renal = tested on: TK-10 renal
# MDA-MB-435 = tested on: MDA-MB-435
# UACC-62 melanoma = tested on: UACC-62 melanoma
# NCI-H460 lung = tested on: NCI-H460 lung
# NCI-H23 lung = tested on: NCI-H23 lung
# MOLT-4 leukemia = tested on: MOLT-4 leukemia
# HCT-116 colon = tested on: HCT-116 colon
# SW-620 colon = tested on: SW-620 colon
# 786-0 renal = tested on: 786-0 renal
# CCRF-CEM leukemia = tested on: CCRF-CEM leukemia
# HOP-92 NSCLC = tested on: HOP-92 NSCLC
# M14 melanoma = tested on: M14 melanoma
# A498 renal = tested on: A498 renal
# SNB-75 CNS = tested on: SNB-75 CNS
# HCT-15 colon = tested on: HCT-15 colon
# K-562 leukemia = tested on: K-562 leukemia
# T-47D breast = tested on: T-47D breast
# COLO 205 colon = tested on: COLO 205 colon
# KM12 colon = tested on: KM12 colon
# OVCAR-4 ovarian = tested on: OVCAR-4 ovarian
# RPMI-8226 leukemia = tested on: RPMI-8226 leukemia
# BT-549 breast = tested on: BT-549 breast
# RXF 393 renal = tested on: RXF 393 renal
# NCI-H226 lung = tested on: NCI-H226 lung
# MALME-3M melanoma = tested on: MALME-3M melanoma
# A549 NSCLC = tested on: A549 NSCLC
# SN12C renal = tested on: SN12C renal
# NCI/ADR-RES ovarian = tested on: NCI/ADR-RES ovarian
# IGROV1 ovarian = tested on: IGROV1 ovarian
# LOX IMVI melanoma = tested on: LOX IMVI melanoma
# U251 CNS = tested on: U251 CNS
# HOP-62 NSCLC = tested on: HOP-62 NSCLC
# OVCAR-3 ovarian = tested on: OVCAR-3 ovarian
# MCF7 breast = tested on: MCF7 breast
# SF-268 CNS = tested on: SF-268 CNS
compound,measurement,setting,value
CN(C)C/C=C/C(=O)Nc1ccc(C(=O)N[C@@]2(C)CCC[C@@H](Nc3ncc(Cl)c(-c4c[nH]c5ccccc45)n3)C2)nc1,GI50,UO-31 renal,55.7 nM
same,TGI,UO-31 renal,718 nM
same,GI50,NCI-H522 lung,17.8 nM
same,TGI,NCI-H522 lung,66.4 nM
same,GI50,HT29 colon,< 10 nM
same,TGI,HT29 colon,1090 nM
same,GI50,HL-60(TB) leukemia,14.5 nM
same,TGI,HL-60(TB) leukemia,66.5 nM
same,GI50,SNB-19 CNS,16.3 nM
same,TGI,SNB-19 CNS,1070 nM
same,GI50,DU-145 prostate,15.3 nM
same,TGI,DU-145 prostate,1090 nM
same,GI50,CAKI-1 renal,< 10 nM
same,TGI,CAKI-1 renal,1110 nM
same,GI50,PC-3 prostate,< 10 nM
same,TGI,PC-3 prostate,83.3 nM
same,GI50,EKVX NSCLC,< 10 nM
same,TGI,EKVX NSCLC,564 nM
same,GI50,OVCAR-8 ovarian,15.4 nM
same,TGI,OVCAR-8 ovarian,1190 nM
same,GI50,HS 578T breast,22 nM
same,TGI,HS 578T breast,87.7 nM
same,GI50,OVCAR-5 ovarian,21.3 nM
same,TGI,OVCAR-5 ovarian,1240 nM
same,GI50,SK-MEL-2 melanoma,12.9 nM
same,TGI,SK-MEL-2 melanoma,51.1 nM
same,GI50,SK-MEL-28 melanoma,< 10 nM
same,TGI,SK-MEL-28 melanoma,118 nM
same,GI50,MDA-MB-231 breast,14.5 nM
same,TGI,MDA-MB-231 breast,1220 nM
same,GI50,ACHN renal,< 10.8 nM
same,TGI,ACHN renal,741 nM
same,GI50,SK-OV-3 ovarian,101 nM
same,TGI,SK-OV-3 ovarian,1230 nM
same,GI50,SK-MEL-5 melanoma,22.1 nM
same,TGI,SK-MEL-5 melanoma,779 nM
same,GI50,SF-539 CNS,19.5 nM
same,TGI,SF-539 CNS,92.9 nM
same,GI50,SF-295 CNS,12.6 nM
same,TGI,SF-295 CNS,1100 nM
same,GI50,UACC-257 melanoma,< 10 nM
same,TGI,UACC-257 melanoma,121 nM
same,GI50,SR leukemia,< 10 nM
same,TGI,SR leukemia,1090 nM
same,GI50,HCC-2998 colon,< 10 nM
same,TGI,HCC-2998 colon,164 nM
same,GI50,TK-10 renal,15.3 nM
same,TGI,TK-10 renal,1110 nM
same,GI50,MDA-MB-435,10.8 nM
same,TGI,MDA-MB-435,112 nM
same,GI50,UACC-62 melanoma,< 10 nM
same,TGI,UACC-62 melanoma,72.8 nM
same,GI50,NCI-H460 lung,< 10 nM
same,TGI,NCI-H460 lung,386 nM
same,GI50,NCI-H23 lung,< 10 nM
same,TGI,NCI-H23 lung,52.3 nM
same,GI50,MOLT-4 leukemia,17.8 nM
same,TGI,MOLT-4 leukemia,1120 nM
same,GI50,HCT-116 colon,< 10 nM
same,TGI,HCT-116 colon,124 nM
same,GI50,SW-620 colon,< 10.6 nM
same,TGI,SW-620 colon,360 nM
same,GI50,786-0 renal,< 14.6 nM
same,TGI,786-0 renal,236 nM
same,GI50,CCRF-CEM leukemia,< 10 nM
same,TGI,CCRF-CEM leukemia,1300 nM
same,GI50,HOP-92 NSCLC,< 10.9 nM
same,TGI,HOP-92 NSCLC,41 nM
same,GI50,M14 melanoma,< 10 nM
same,TGI,M14 melanoma,28.2 nM
same,GI50,A498 renal,18.9 nM
same,TGI,A498 renal,62.1 nM
same,GI50,SNB-75 CNS,13.7 nM
same,TGI,SNB-75 CNS,42.7 nM
same,GI50,HCT-15 colon,28.6 nM
same,TGI,HCT-15 colon,1050 nM
same,GI50,K-562 leukemia,< 10 nM
same,TGI,K-562 leukemia,5320 nM
same,GI50,T-47D breast,21.8 nM
same,TGI,T-47D breast,565 nM
same,GI50,COLO 205 colon,10 nM
same,TGI,COLO 205 colon,26 nM
same,GI50,KM12 colon,13 nM
same,TGI,KM12 colon,194 nM
same,GI50,OVCAR-4 ovarian,14.1 nM
same,TGI,OVCAR-4 ovarian,915 nM
same,GI50,RPMI-8226 leukemia,< 10 nM
same,TGI,RPMI-8226 leukemia,24.4 nM
same,GI50,BT-549 breast,36 nM
same,TGI,BT-549 breast,155 nM
same,GI50,RXF 393 renal,14.4 nM
same,TGI,RXF 393 renal,34.4 nM
CCCOC(=O)N[C@H]1CCc2c(Cl)c(OC)c(OC)c(OC)c2-c2ccc(SC)c(=O)cc21,GI50,UO-31 renal,74.7 nM
same,TGI,UO-31 renal,27900 nM
same,GI50,NCI-H522 lung,< 10 nM
same,TGI,NCI-H522 lung,271 nM
same,GI50,HT29 colon,< 10 nM
same,TGI,HT29 colon,37600 nM
same,GI50,NCI-H226 lung,< 10 nM
same,TGI,NCI-H226 lung,12500 nM
same,GI50,HL-60(TB) leukemia,< 10 nM
same,TGI,HL-60(TB) leukemia,< 10 nM
same,GI50,SNB-19 CNS,< 10 nM
same,TGI,SNB-19 CNS,27400 nM
same,GI50,DU-145 prostate,< 10 nM
same,TGI,DU-145 prostate,57.5 nM
same,GI50,CAKI-1 renal,< 22.6 nM
same,TGI,CAKI-1 renal,14100 nM
same,GI50,PC-3 prostate,< 10 nM
same,TGI,PC-3 prostate,> 100000 nM
same,GI50,MALME-3M melanoma,< 10 nM
same,TGI,MALME-3M melanoma,17100 nM
same,GI50,EKVX NSCLC,< 10 nM
same,TGI,EKVX NSCLC,> 100000 nM
same,GI50,OVCAR-8 ovarian,< 12.2 nM
same,TGI,OVCAR-8 ovarian,> 100000 nM
same,GI50,HS 578T breast,< 10 nM
same,TGI,HS 578T breast,20600 nM
same,GI50,OVCAR-5 ovarian,< 13 nM
same,TGI,OVCAR-5 ovarian,> 76700 nM
same,GI50,SK-MEL-2 melanoma,1880 nM
same,TGI,SK-MEL-2 melanoma,29900 nM
same,GI50,SK-MEL-28 melanoma,2020 nM
same,TGI,SK-MEL-28 melanoma,23500 nM
same,GI50,MDA-MB-231 breast,< 10 nM
same,TGI,MDA-MB-231 breast,4710 nM
same,GI50,A549 NSCLC,< 15.3 nM
same,TGI,A549 NSCLC,> 100000 nM
same,GI50,ACHN renal,< 10 nM
same,TGI,ACHN renal,23600 nM
same,GI50,SK-MEL-5 melanoma,< 10 nM
same,TGI,SK-MEL-5 melanoma,20.7 nM
same,GI50,SF-539 CNS,< 10 nM
same,TGI,SF-539 CNS,< 35.6 nM
same,GI50,SF-295 CNS,< 10 nM
same,GI50,UACC-257 melanoma,7460 nM
same,TGI,UACC-257 melanoma,37500 nM
same,GI50,SN12C renal,< 12.3 nM
same,TGI,SN12C renal,13600 nM
same,GI50,SR leukemia,< 10 nM
same,TGI,SR leukemia,19200 nM
same,GI50,NCI/ADR-RES ovarian,26.9 nM
same,TGI,NCI/ADR-RES ovarian,21600 nM
same,GI50,IGROV1 ovarian,< 10 nM
same,TGI,IGROV1 ovarian,> 65600 nM
same,GI50,HCC-2998 colon,< 11.2 nM
same,TGI,HCC-2998 colon,700 nM
same,GI50,TK-10 renal,5040 nM
same,TGI,TK-10 renal,> 88400 nM
same,GI50,MDA-MB-435,< 10 nM
same,TGI,MDA-MB-435,< 10 nM
same,GI50,UACC-62 melanoma,< 10 nM
same,TGI,UACC-62 melanoma,13800 nM
same,GI50,NCI-H460 lung,< 11.2 nM
same,TGI,NCI-H460 lung,944 nM
same,GI50,NCI-H23 lung,< 10 nM
same,TGI,NCI-H23 lung,32500 nM
same,GI50,LOX IMVI melanoma,< 10 nM
same,TGI,LOX IMVI melanoma,13000 nM
same,GI50,MOLT-4 leukemia,< 10 nM
same,TGI,MOLT-4 leukemia,23600 nM
same,GI50,HCT-116 colon,< 10 nM
same,TGI,HCT-116 colon,12700 nM
same,GI50,SW-620 colon,< 10 nM
same,TGI,SW-620 colon,> 52500 nM
same,GI50,786-0 renal,< 17.4 nM
same,TGI,786-0 renal,21500 nM
same,GI50,CCRF-CEM leukemia,< 10 nM
same,TGI,CCRF-CEM leukemia,> 100000 nM
same,GI50,U251 CNS,< 10 nM
same,TGI,U251 CNS,12200 nM
same,GI50,HOP-92 NSCLC,< 11.9 nM
same,TGI,HOP-92 NSCLC,4650 nM
same,GI50,HOP-62 NSCLC,10.1 nM
same,TGI,HOP-62 NSCLC,50900 nM
same,GI50,M14 melanoma,< 10 nM
same,TGI,M14 melanoma,4470 nM
same,GI50,A498 renal,< 10 nM
same,TGI,A498 renal,< 10 nM
same,GI50,SNB-75 CNS,< 10 nM
same,TGI,SNB-75 CNS,14500 nM
same,GI50,HCT-15 colon,< 10 nM
same,TGI,HCT-15 colon,16600 nM
same,GI50,K-562 leukemia,< 10 nM
same,TGI,K-562 leukemia,> 100000 nM
same,GI50,OVCAR-3 ovarian,< 10 nM
same,TGI,OVCAR-3 ovarian,< 10 nM
same,GI50,KM12 colon,< 10 nM
same,TGI,KM12 colon,1630 nM
same,GI50,OVCAR-4 ovarian,< 12 nM
same,TGI,OVCAR-4 ovarian,> 100000 nM
same,GI50,RPMI-8226 leukemia,< 10 nM
same,TGI,RPMI-8226 leukemia,7730 nM
same,GI50,MCF7 breast,< 10 nM
same,TGI,MCF7 breast,13100 nM
same,GI50,BT-549 breast,< 10 nM
same,TGI,BT-549 breast,6010 nM
same,GI50,SF-268 CNS,< 11.7 nM
same,TGI,SF-268 CNS,17400 nM
same,GI50,RXF 393 renal,< 10 nM
same,TGI,RXF 393 renal,8410 nM
